Laboratory results published in patent US20250312499A1, “KISSPEPTIN RECEPTOR (KISS1R) TARGETED THERAPEUTICS AND USES THEREOF” (priority 2024, published 2025).
Numbered stars: 1 amine (or outer) side, 2 acyl side, 3 side chain; on linkers, the order of the positions; unused ones are H or OH. Square brackets hold non-standard residues; d marks the D form. Peptide text beside a SMILES is read from it. * marks the point of attachment. DOTA = O=C(O)CN1CCN(CC(=O)O)CCN(CC(=O)*)CCN(CC(=O)O)CC1; Gly(N-(3-F-4-Me-benzyl)) = Cc1ccc(CNCC(=O)*)cc1F; Butanoyl(4-(4-I-phenyl)) = O=C(CCCc1ccc(I)cc1)*; X16 = O=C(c1ccc(-c2ccccc2)c(OCCCN[*:1])c1)[*:2]; Gly(N-3-F-4-Me-benzyl) = Cc1ccc(CNCC(=O)O)cc1F; Api(1-amidino) = N=C(N)N1CCC(N)(C(=O)O)CC1; Hydrocinnamoyl(4-Me) = Cc1ccc(CCC(=O)*)cc1; Bip = N[C@@H](Cc1ccc(-c2ccccc2)cc1)C(=O)O; Hydrocinnamoyl(4-I) = O=C(CCc1ccc(I)cc1)*; HO(CH2CH2O)2CH2CH2CO = O=C(CCOCCOCCO)*; 2Nal = N[C@@H](Cc1ccc2ccccc2c1)C(=O)O; d2Nal = N[C@H](Cc1ccc2ccccc2c1)C(=O)O; X1 = O=C(CN1CCC(N[*:1])CC1)[*:2]; 4Pal = N[C@@H](Cc1ccncc1)C(=O)O; d4Pal = N[C@H](Cc1ccncc1)C(=O)O; Lauroyl = CCCCCCCCCCCC(=O)*; 4Amb = NCc1ccc(C(=O)O)cc1; Api = NC1(C(=O)O)CCNCC1; PEG2 = NCCOCCOCCC(=O)O; Ahx = NCCCCCC(=O)O; azaGly = NNC(=O)O; Sar = CNCC(=O)O

molecular target: human kisspeptin receptor (Homo sapiens (Human), UniProt Q969F8); assay: Human KISS1R binding assay (membrane competition binding); conditions: 90 min at room temperature; competition with 0.2 nM [125I]-metastin (45-54); Flp-In T-Rex 293 kisspeptin membranes; metal complexes nonradioactive Ga, In, Lu; read-out: hKiSSR Binding Ki (90 min)
Outline: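 Membranes from tetracycline-induced (48 h) Flp-In T-Rex 293 cells expressing receptor, 5–10 μg, incubated 90 min at room temperature with 0.2 nM [125I]-metastin (45-54) and competitor (typically 0–10,000 nM) in Tris/Mg/Ca/EGTA/0.1% BSA, pH 7.4. Filtration, washing, counting; Ki by non-linear regression.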

Chain of human kisspeptin receptor (Q969F8 whole entry): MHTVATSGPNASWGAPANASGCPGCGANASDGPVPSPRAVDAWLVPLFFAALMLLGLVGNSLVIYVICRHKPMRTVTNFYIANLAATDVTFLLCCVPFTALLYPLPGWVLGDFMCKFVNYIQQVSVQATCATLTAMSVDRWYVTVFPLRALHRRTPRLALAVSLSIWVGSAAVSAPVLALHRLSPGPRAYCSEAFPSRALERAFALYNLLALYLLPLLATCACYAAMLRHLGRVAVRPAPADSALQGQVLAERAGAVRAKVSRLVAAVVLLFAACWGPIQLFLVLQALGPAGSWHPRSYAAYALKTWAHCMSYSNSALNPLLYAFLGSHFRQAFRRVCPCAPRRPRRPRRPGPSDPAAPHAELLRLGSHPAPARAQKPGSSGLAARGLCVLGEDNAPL

`Cc1ccc(CNCC(=O)N2CCC(NC(=O)[C@H](CC(C)C)NC(=O)NNC(=O)[C@H](Cc3ccc(-c4ccccc4)cc3)NC(=O)CN3CCC(NC(=O)CN4CCN(CC(=O)O)CCN(CC(=O)O)CCN(CC(=O)O)CC4)CC3)(C(=O)N[C@@H](Cc3c[nH]c4ccccc34)C(N)=O)CC2)cc1F` [Compound 142] ({DOTA}-[X1][Bip][azaGly]L[Api](Gly(N-(3-F-4-Me-benzyl)))W-NH2) and `Cc1ccc(CNCC(=O)N2CCC(NC(=O)[C@H](CC(C)C)NC(=O)NNC(=O)[C@H](Cc3ccccc3)NC(=O)[C@@H](NC(=O)CN3CCC(NC(=O)CN4CCN(CC(=O)O)CCN(CC(=O)O)CCN(CC(=O)O)CC4)CC3)[C@@H](C)O)(C(=O)N[C@@H](Cc3c[nH]c4ccccc34)C(N)=O)CC2)cc1F` [Compound 233] ({DOTA}-[X1]TF[azaGly]L[Api](Gly(N-(3-F-4-Me-benzyl)))W-NH2) cannot be ordered by Ki: less than 10 nM for the first, less than 10 nM for the second.

`Cc1ccc(CNCC(=O)N2CCC(NC(=O)[C@@H](CC(C)C)SCCNC(=O)[C@H](Cc3ccccc3)NC(=O)CCCCCNC(=O)CN3CCN(CC(=O)O)CCN(CC(=O)O)CCN(CC(=O)O)CC3)(C(=O)N[C@@H](Cc3c[nH]c4ccccc34)C(N)=O)CC2)cc1F` [Compound 137] and `Cc1ccc(CNCC(=O)N2CCC(NC(=O)[C@H](CC(C)C)NC(=O)NNC(=O)c3ccc(-c4ccccc4)c(OCCCNC(=O)CN4CCC(NC(=O)CN5CCN(CC(=O)O)CCN(CC(=O)O)CCN(CC(=O)O)CC5)CC4)c3)(C(=O)N[C@@H](Cc3c[nH]c4ccccc34)C(N)=O)CC2)cc1F` [Compound 216] ({DOTA}-[X1][X16][azaGly]L[Api](Gly(N-(3-F-4-Me-benzyl)))W-NH2) cannot be ordered by Ki: less than 10 nM for the first, less than 10 nM for the second.

`CC(C)C[C@H](NC(=O)NNC(=O)[C@H](Cc1ccccc1)NC(=O)[C@@H](NC(=O)[C@H](CC(N)=O)NC(=O)[C@@H](Cc1ccc2ccccc2c1)NC(=O)[C@@H](Cc1ccc(O)cc1)NC(=O)CCOCCOCCNC(=O)CCc1ccc(I)cc1)[C@@H](C)O)C(=O)NC1(C(=O)N[C@@H](Cc2ccc(O)cc2)C(N)=O)CCN(C(=N)N)CC1` [Compound 397] ({Hydrocinnamoyl(4-I)-PEG2}-[dY][d2Nal]NTF[azaGly]L[Api(1-amidino)]Y-NH2) and `CNCC(=O)N1CCC(NC(=O)[C@H](CC(C)C)NC(=O)NNC(=O)[C@H](Cc2ccccc2)NC(=O)[C@@H](NC(=O)[C@H](CC(N)=O)NC(=O)[C@@H](Cc2ccc3ccccc3c2)NC(=O)[C@@H](Cc2ccc(O)cc2)NC(=O)CCCc2ccc(I)cc2)[C@@H](C)O)(C(=O)N[C@@H](Cc2ccc(O)cc2)C(N)=O)CC1` [Compound 399] ({Butanoyl(4-(4-I-phenyl))}-[dY][d2Nal]NTF[azaGly]L[Api](Sar)Y-NH2) cannot be ordered by Ki: less than 10 nM for the first, less than 10 nM for the second.

`Cc1ccc(CNCC(=O)N2CCC(NC(=O)[C@H](CC(C)C)NC(=O)NNC(=O)[C@H](Cc3ccccc3)NC(=O)[C@@H](NC(=O)[C@H](CC(N)=O)NC(=O)[C@@H](Cc3ccncc3)NC(=O)[C@@H](Cc3ccc(O)cc3)NC(=O)CCOCCOCCNC(=O)CN3CCN(CC(=O)O)CCN(CC(=O)O)CCN(CC(=O)O)CC3)[C@@H](C)O)(C(=O)N[C@@H](Cc3c[nH]c4ccccc34)C(N)=O)CC2)cc1F` [Compound 368] ({DOTA-PEG2}-[dY][d4Pal]NTF[azaGly]L[Api](Gly(N-(3-F-4-Me-benzyl)))W-NH2) and `Cc1ccc(CNCC(=O)N2CCC(NC(=O)[C@H](CC(C)C)NC(=O)NNC(=O)[C@H](Cc3ccccc3)NC(=O)[C@@H](NC(=O)[C@H](CC(N)=O)NC(=O)[C@H](CCCCNC(=O)CN3CCN(CC(=O)O)CCN(CC(=O)O)CCN(CC(=O)O)CC3)NC(=O)[C@@H](Cc3ccc(O)cc3)NC(=O)CCOCCOCCO)[C@@H](C)O)(C(=O)N[C@@H](Cc3c[nH]c4ccccc34)C(N)=O)CC2)cc1F` [Compound 379] ({HO(CH2CH2O)2CH2CH2CO}-[dY]K(DOTA)NTF[azaGly]L[Api](Gly(N-(3-F-4-Me-benzyl)))W-NH2) cannot be ordered by Ki: less than 10 nM for the first, less than 10 nM for the second.

First: CC(C)C[C@H](NC(=O)NNC(=O)[C@H](Cc1ccccc1)NC(=O)CCCCCNC(=O)[C@H](Cc1ccc2ccccc2c1)NC(=O)[C@@H](Cc1ccc(O)cc1)NC(=O)CN1CCN(CC(=O)O)CCN(CC(=O)O)CCN(CC(=O)O)CC1)C(=O)NC1(C(=O)N[C@@H](Cc2ccccc2)C(N)=O)CCN(C(=N)N)CC1 [Compound 289] ({DOTA}-[dY][2Nal][Ahx]F[azaGly]L[Api(1-amidino)]F-NH2)
Second: CC(C)C[C@H](NC(=O)NNC(=O)[C@H](Cc1ccccc1)NC(=O)CCCCCNC(=O)[C@H](Cc1ccc2ccccc2c1)NC(=O)[C@@H](Cc1ccc(O)cc1)NC(=O)CN1CCN(CC(=O)O)CCN(CC(=O)O)CCN(CC(=O)O)CC1)C(=O)NC1(C(=O)N[C@@H](Cc2c[nH]c3ccccc23)C(N)=O)CCN(C(=N)N)CC1 [Compound 287] ({DOTA}-[dY][2Nal][Ahx]F[azaGly]L[Api(1-amidino)]W-NH2)
The Ki of the first is lower: less than 10 nM for the first, 10 to 100 nM for the second.

`CNCC(=O)N1CCC(NC(=O)[C@H](CC(C)C)NC(=O)NNC(=O)[C@H](Cc2ccccc2)NC(=O)[C@@H](NC(=O)[C@H](CC(N)=O)NC(=O)[C@H](CCCCNC(=O)CN2CCN(CC(=O)O)CCN(CC(=O)O)CCN(CC(=O)O)CC2)NC(=O)[C@@H](Cc2ccc(O)cc2)NC(=O)CCOCCOCCNC(=O)CNCc2ccc(C)c(F)c2)[C@@H](C)O)(C(=O)N[C@@H](Cc2c[nH]c3ccccc23)C(N)=O)CC1` [Compound 384] (H-[Gly(N-3-F-4-Me-benzyl)][PEG2][dY]K(DOTA)NTF[azaGly]L[Api](Sar)W-NH2) and `CNCC(=O)N1CCC(NC(=O)[C@H](CC(C)C)NC(=O)NNC(=O)[C@H](Cc2ccccc2)NC(=O)[C@@H](NC(=O)[C@H](CC(N)=O)NC(=O)[C@@H](CCCCNC(=O)CN2CCN(CC(=O)O)CCN(CC(=O)O)CCN(CC(=O)O)CC2)NC(=O)[C@@H](Cc2ccc(O)cc2)NC(=O)CCOCCOCCNC(=O)CCc2ccc(C)cc2)[C@@H](C)O)(C(=O)N[C@H](Cc2c[nH]c3ccccc23)C(N)=O)CC1` [Compound 357] ({Hydrocinnamoyl(4-Me)-PEG2}-[dY][dK](DOTA)NTF[azaGly]L[Api](Sar)[dW]-NH2) cannot be ordered by Ki: less than 10 nM for the first, less than 10 nM for the second.

`CC(C)C[C@H](NC(=O)NNC(=O)[C@H](Cc1ccccc1)NC(=O)[C@@H](NC(=O)[C@H](CC(N)=O)NC(=O)[C@@H](Cc1c[nH]c2ccccc12)NC(=O)[C@@H](Cc1ccc(O)cc1)NC(=O)c1ccc(CNC(=O)CCCCCNC(=O)CN2CCN(CC(=O)O)CCN(CC(=O)O)CCN(CC(=O)O)CC2)cc1)[C@@H](C)O)C(=O)NC1(C(=O)N[C@@H](Cc2c[nH]c3ccccc23)C(N)=O)CCN(C(=N)N)CC1` [Compound 270] ({DOTA-Ahx-4Amb}-[dY][dW]NTF[azaGly]L[Api(1-amidino)]W-NH2) and `CC(C)C[C@H](NC(=O)NNC(=O)[C@H](Cc1ccccc1)NC(=O)[C@@H](NC(=O)[C@H](CC(N)=O)NC(=O)[C@H](CCCCNC(=O)CN1CCN(CC(=O)O)CCN(CC(=O)O)CCN(CC(=O)O)CC1)NC(=O)[C@@H](Cc1ccc(O)cc1)NC(=O)CCc1ccc(I)cc1)[C@@H](C)O)C(=O)NC1(C(=O)N[C@@H](Cc2c[nH]c3ccccc23)C(N)=O)CCN(C(=N)N)CC1` [Compound 321] ({Hydrocinnamoyl(4-I)}-[dY]K(DOTA)NTF[azaGly]L[Api(1-amidino)]W-NH2) cannot be ordered by Ki: less than 10 nM for the first, less than 10 nM for the second.

`CC(C)C[C@H](NC(=O)NNC(=O)[C@H](Cc1ccccc1)NC(=O)[C@@H](NC(=O)[C@H](CC(N)=O)NC(=O)[C@H](CCCCNC(=O)CN1CCN(CC(=O)O)CCN(CC(=O)O)CCN(CC(=O)O)CC1)NC(=O)[C@@H](Cc1ccc(O)cc1)NC(=O)CCOCCOCCNC(=O)CCc1ccc(I)cc1)[C@@H](C)O)C(=O)NC1(C(=O)N[C@@H](Cc2ccccc2)C(N)=O)CCN(C(=N)N)CC1` [Compound 323] ({Hydrocinnamoyl(4-I)-PEG2}-[dY]K(DOTA)NTF[azaGly]L[Api(1-amidino)]F-NH2) and `CCCCCCCCCCCC(=O)N[C@H](Cc1ccc(O)cc1)C(=O)N[C@@H](CCCCNC(=O)CN1CCN(CC(=O)O)CCN(CC(=O)O)CCN(CC(=O)O)CC1)C(=O)N[C@@H](CC(N)=O)C(=O)N[C@H](C(=O)N[C@@H](Cc1ccccc1)C(=O)NNC(=O)N[C@@H](CC(C)C)C(=O)NC1(C(=O)N[C@@H](Cc2ccc(O)cc2)C(N)=O)CCN(C(=N)N)CC1)[C@@H](C)O` [Compound 331] (Lauroyl-[dY]K(DOTA)NTF[azaGly]L[Api(1-amidino)]Y-NH2) cannot be ordered by Ki: less than 10 nM for the first, less than 10 nM for the second.

Compared with `Cc1ccc(CNCC(=O)N2CCC(NC(=O)[C@H](CC(C)C)NC(=O)NNC(=O)[C@H](Cc3ccccc3)NC(=O)CCCCCNC(=O)[C@H](Cc3ccc4ccccc4c3)NC(=O)[C@H](Cc3ccc(O)cc3)NC(=O)CNC(=O)CN3CCN(CC(=O)O)CCN(CC(=O)O)CCN(CC(=O)O)CC3)(C(=O)N[C@@H](Cc3c[nH]c4ccccc34)C(N)=O)CC2)cc1F` [Compound 307] ({DOTA}-GY[2Nal][Ahx]F[azaGly]L[Api](Gly(N-(3-F-4-Me-benzyl)))W-NH2), `Cc1ccc(CNCC(=O)N2CCC(NC(=O)[C@H](CC(C)C)NC(=O)NNC(=O)[C@H](Cc3ccccc3)NC(=O)[C@@H](NC(=O)[C@H](CCC(=O)O)NC(=O)[C@H](CCCCNC(=O)CN3CCN(CC(=O)O)CCN(CC(=O)O)CCN(CC(=O)O)CC3)NC(=O)CCOCCOCCO)[C@@H](C)O)(C(=O)N[C@@H](Cc3ccncc3)C(N)=O)CC2)cc1F` [Compound 252] ({HO(CH2CH2O)2CH2CH2CO}-K(DOTA)ETF[azaGly]L[Api](Gly(N-(3-F-4-Me-benzyl)))[4Pal]-NH2) is higher in Ki: less than 10 nM for the first, greater than 100 nM for the second.

`CCCCCCCCCCCC(=O)N[C@H](Cc1ccc(O)cc1)C(=O)N[C@H](Cc1ccc2ccccc2c1)C(=O)N[C@@H](CC(N)=O)C(=O)N[C@H](C(=O)N[C@@H](Cc1ccccc1)C(=O)NNC(=O)N[C@@H](CC(C)C)C(=O)NC1(C(=O)N[C@@H](Cc2ccc(O)cc2)C(N)=O)CCN(C(=O)CNC)CC1)[C@@H](C)O` [Compound 401] (Lauroyl-[dY][d2Nal]NTF[azaGly]L[Api](Sar)Y-NH2) gave a Ki of less than 10 nM.
